3 molecules from ChEMBL document CHEMBL1123948, “Synthesis and biological evaluation of poly-gamma-glutamyl metabolites of 10-deazaaminopterin and 10-ethyl-10-deazaaminopterin” (J Med Chem, 1988) can be followed below.

Test [1] relates to Lacticaseibacillus casei. Description: Inhibitory activity against the growth of Lactobacillus casei (ATCC 7469) was determined (glutamate residue 1). The format is functional, organism-based.
The target in test [2] is T1, Dihydrofolate reductase (Lactobacillus casei, UniProt P00381). Briefly: Inhibitory activity against dihydrofolate reductase in Lactobacillus casei was determined (glutamate residue 4). The format is functional, Lacticaseibacillus casei.
Test [3] deals with Lacticaseibacillus casei. Briefly: Inhibitory activity against the growth of Lactobacillus casei (ATCC 7469) was determined (glutamate residue 4). In kind it is functional, organism-based.
In test [4] the test system is Lacticaseibacillus casei. Briefly: Inhibitory activity against thymidylate synthase in Lactobacillus casei was determined (glutamate residue 6). In kind it is functional, organism-based.
Test [5] has as its system Lacticaseibacillus casei. Description: Inhibitory activity against the growth of Lactobacillus casei (ATCC 7469) was determined (glutamate residue 6). In kind it is functional, organism-based.
The subject of test [6] is Lacticaseibacillus casei. Briefly: Inhibitory activity against the growth of Lactobacillus casei (ATCC 7469) was determined (glutamate residue 3). In kind it is functional, organism-based.
Test [7] concerns Enterococcus hirae (Streptococcus faecium ATCC 8043). Description: Inhibitory activity against the growth of Streptococcus faecium (ATCC 8043) was determined (glutamate residue 6).
Test [8] has as its system Lacticaseibacillus casei. Description: Inhibitory activity against the growth of Lactobacillus casei (ATCC 7469) was determined (glutamate residue 5). The format is functional, organism-based.
Test [9] deals with T1, Dihydrofolate reductase. Description: Inhibitory activity against dihydrofolate reductase in Lactobacillus casei was determined (glutamate residue 6). The format is functional, Lacticaseibacillus casei.
For test [10], the system named is Lacticaseibacillus casei. Briefly: Inhibitory activity against thymidylate synthase in Lactobacillus casei was determined (glutamate residue 5). In kind it is functional, organism-based.
Test [11] addresses T1, Dihydrofolate reductase. Briefly: Inhibitory activity against dihydrofolate reductase in Lactobacillus casei was determined (glutamate residue 5). The format is functional, Lacticaseibacillus casei.
Test [12] concerns Lacticaseibacillus casei. Briefly: Inhibitory activity against thymidylate synthase in Lactobacillus casei was determined (glutamate residue 3). The format is functional, organism-based.
In test [13] the test system is Lacticaseibacillus casei. Description: Inhibitory activity against the growth of Lactobacillus casei (ATCC 7469) was determined (glutamate residue 2). In kind it is functional, organism-based.
In test [14] the target is T1, Dihydrofolate reductase. Briefly: Inhibitory activity against dihydrofolate reductase in Lactobacillus casei was determined (glutamate residue 3). In kind it is functional, Lacticaseibacillus casei.
The subject of test [15] is Lacticaseibacillus casei. Briefly: Inhibitory activity against thymidylate synthase in Lactobacillus casei was determined (glutamate residue 1). In kind it is functional, organism-based.
Test [16] deals with Lacticaseibacillus casei. Briefly: Inhibitory activity against thymidylate synthase in Lactobacillus casei was determined (glutamate residue 4). The format is functional, organism-based.
Test [17] has as its target T1, Dihydrofolate reductase. Description: Inhibitory activity against dihydrofolate reductase in Lactobacillus casei was determined (glutamate residue 2). In kind it is functional, Lacticaseibacillus casei.
The subject of test [18] is Lacticaseibacillus casei. Briefly: Inhibitory activity against thymidylate synthase in Lactobacillus casei was determined (glutamate residue 2). The format is functional, organism-based.

pIC50: −log10 of the molar value. Several values for one entry are separate records, joined by “and”; a condition that tells them apart may be missing. Equal entries are not always repeated.

T1 sequence (P00381 whole entry): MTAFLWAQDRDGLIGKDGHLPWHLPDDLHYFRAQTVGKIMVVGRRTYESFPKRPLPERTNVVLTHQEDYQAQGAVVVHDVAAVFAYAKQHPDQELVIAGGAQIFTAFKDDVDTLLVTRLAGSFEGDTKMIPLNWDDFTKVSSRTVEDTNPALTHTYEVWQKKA

The pIC50 is −log10 of the IC50, conventionally taken in molar units. In the case of `Nc1nc(N)c2nc(CCc3ccc(C(=O)N[C@@H](CCC(=O)O)C(=O)O)cc3)cnc2n1`, the pIC50 in the test on Lacticaseibacillus casei [1] was 10.10; against Dihydrofolate reductase [2], 7.70; in the test on Lacticaseibacillus casei [3] it was 8.52; with Lacticaseibacillus casei [4] it was 5.64; with Lacticaseibacillus casei [5], 7.05; with Lacticaseibacillus casei [6], 9.22. For the same molecule, the pIC50 in test [7] was below 5.52; in the test with Lacticaseibacillus casei [8], 7.85; against Dihydrofolate reductase [9] it was 7.47; with Lacticaseibacillus casei [10] it was 5.46; against Dihydrofolate reductase [11], 7.68; in the test with Lacticaseibacillus casei [12] it was 4.96. The negative-log IC50 (pIC50) in the test with Lacticaseibacillus casei [13] is 10.05; at Dihydrofolate reductase [14], 7.66; in the test with Lacticaseibacillus casei [15] it was below 3.52; in the test on Lacticaseibacillus casei [16], 5.26; against Dihydrofolate reductase [17] it was 7.74 and 7.62; in the test with Lacticaseibacillus casei [18], 4.06.

As for `CCC(Cc1cnc2nc(N)nc(N)c2n1)c1ccc(C(=O)N[C@@H](CCC(=O)O)C(=O)O)cc1` (stereo not given in full) [EDATREXATE], the pIC50 with Lacticaseibacillus casei [1] is 9.20; in the test with Lacticaseibacillus casei [3], 8.05; in the test with Lacticaseibacillus casei [6], 9.00; with Lacticaseibacillus casei [8], 7.05; with Lacticaseibacillus casei [10], 5.13; in the test on Lacticaseibacillus casei [12], 4.55. The pIC50 in the test with Lacticaseibacillus casei [13] was 9.80; in the test on Lacticaseibacillus casei [15], below 3.52; with Lacticaseibacillus casei [16], 4.85; in the test on Lacticaseibacillus casei [18] it was 3.77.

`CN(Cc1cnc2nc(N)nc(N)c2n1)c1ccc(C(=O)N[C@@H](CCC(=O)O)C(=O)O)cc1` [METHOTREXATE]: the pIC50 was 9.10 in the test with Lacticaseibacillus casei [3]; 6.55 in the test on Lacticaseibacillus casei [4]; 7.57 with Lacticaseibacillus casei [5]; 9.70 in the test on Lacticaseibacillus casei [6]; below 5.10 in [7]; 8.66 with Lacticaseibacillus casei [8]. Besides, the negative logarithm of the IC50 (pIC50) in the test with Lacticaseibacillus casei [10] was 6.55; in the test on Lacticaseibacillus casei [12] it was 5.96; in the test with Lacticaseibacillus casei [13], 10.05; in the test with Lacticaseibacillus casei [15], 4.00; in the test on Lacticaseibacillus casei [16], 6.74; in the test on Lacticaseibacillus casei [18], 5.22.
